The text below walks through data of US20240066003A1, “NEURODEVELOPMENTAL DISORDER THERAPY” (Anavex Life Sciences Corp., priority 2016, published 2024).

Where only a bound is given, the exact number is not on record here.

Experiment [1] concerns Rett syndrome. Kind of experiment: Example 1 breathing variability in Rett syndrome patient. Format: in vivo, human. The settings on record: person, oral 4 mg daily for 10 days. How it is done: A person presenting with Rett syndrome is administered oral doses of A2-73 at 4 mg daily for 10 days. On presentation, their breathing is abnormal. Their mean breaths per minute is calculated to assess breathing variability.

Experiment [2] deals with relapsing-remitting multiple sclerosis. Kind of experiment: Example 9 gadolinium-enhancing MRI lesions in relapsing-remitting multiple sclerosis patient. Format: in vivo, human. The settings on record: person, oral 30 mg every other day for 3 months, up to month 6. The protocol:
A person presents with relapsing-remitting multiple sclerosis. They begin treatment with oral doses of A2-73 at 30 mg every other day for 3 months.

Experiment [3] has as its system heterozygous MECP2knockout mice (HET). Kind of experiment: Clasping of hind legs. In kind it is in vivo. To be noted: 8 weeks of age; 30 mg/kg p.o. daily. The protocol:
Studies employed wild type (WT) mice and heterozygous MECP2knockout mice (HET) All mice were provided by Jackson Laboratory, Bar Harbor, Maine. HET mice were Bird mice (Jackson Laboratories, Bar Harbor, ME, B6.129P2(C)-Mecp2^tm1.1Bird/Stock Number: 003890) were obtained by crossing het females with wild type (WT) males (C57B/6J). […] Mecp2 females testing at ˜8 and ˜12 weeks of age WT—vehicle (0.25% MC/dH2O) HET—vehicle (0.25% MC/dH2O) HET—A2-733 (10 mg/kg) HET—A2-733 (30 mg/kg) Chronic dosing (p.o.) daily, starting at ˜5.5 weeks of age and continuing through the 12-week behavioral testing time point 60 min pre-treatment during behavioral testing. Mice are lifted gently by the tail with front limbs remaining on surface. Clasping of hind legs is noted (normal is a spread in the hind legs).

The test system of experiment [4] is muscarinic acetylcholine receptors. The settings on record: believed to bind; cited from earlier work.
Experiment [5] has as its system amyloid β25-35 peptide (Aβ25-35) injected mice. To be noted: cited from earlier work.
For experiment [6], the system named is Rett syndrome. Kind of experiment: Example 4 eating and choking in Rett syndrome patient. In kind it is in vivo, human. The settings on record: person, oral 40 mg every other day, after 60 days. The protocol: A person presents with Rett syndrome. […] They begin treatment with oral doses of A2-73 at 40 mg every other day.
In experiment [7] the test system is heterozygous MECP2knockout mice (HET). Kind of experiment: Startle/PPI. Format: in vivo. The protocol: Studies employed wild type (WT) mice and heterozygous MECP2knockout mice (HET) All mice were provided by Jackson Laboratory, Bar Harbor, Maine. HET mice were Bird mice (Jackson Laboratories, Bar Harbor, ME, B6.129P2(C)-Mecp2^tm1.1Bird/Stock Number: 003890) were obtained by crossing het females with wild type (WT) males (C57B/6J). […] Mecp2 females testing at ˜8 and ˜12 weeks of age WT—vehicle (0.25% MC/dH2O) HET—vehicle (0.25% MC/dH2O) HET—A2-733 (10 mg/kg) HET—A2-733 (30 mg/kg) Chronic dosing (p.o.) daily, starting at ˜5.5 weeks of age and continuing through the 12-week behavioral testing time point 60 min pre-treatment during behavioral testing. The acoustic startle measures an unconditioned reflex response to external auditory stimulation. Mice are placed in the prepulse inhibition (PPI) chambers for a 5 min session of white noise (70 dB) habituation. Then the session starts with a habituation block of 6 presentations of the startle stimulus alone, followed by 10 PPI blocks of 6 different types of trials [null (no stimuli), startle (120 dB), startle plus prepulse (4, 8 and 12 dB over background noise i.e. 74, 78 or 82 dB) and prepulse alone (82 dB)] presented at random within each block. The amount of inhibition of the normal startle is determined and expressed as a percentage of the basic startle response (from startle alone trials), excluding the startle response of the first habituation block.

In experiment [8] the test system is Rett syndrome. Kind of experiment: Example 3 seizure reduction in Rett syndrome patient. In kind it is in vivo, human. To be noted: oral 2 mg daily, after 5 days, 6 to 10 seizures per day before therapy. How it is done:
A person presents with Rett syndrome. They experience 6 to 10 seizures per day prior to commencing therapy. They begin treatment with oral doses of A2-73 at 2 mg daily. After 5 days of treatment, the number of daily seizures is reduced to 3 or fewer.

The subject of experiment [9] is multiple sclerosis. Kind of experiment: Example 8 gadolinium-enhanced MRI lesions in multiple sclerosis patient. Format: in vivo, human. The settings on record: person, oral 40 mg every fifth day, weeks 12, 16, 20 and 24 vs 12 week pretreatment MRI. The protocol: A person presents with multiple sclerosis. They begin treatment with oral doses of A2-73 at 40 mg every fifth day.

Regarding `CN(C)CC1CCOC1(c1ccccc1)c1ccccc1.Cl` (centres unmarked) [A2-73, tetrahydro-N,N-dimethyl-2,2-diphenyl-3-furanmethanamine hydrochloride], in experiment [1], the “breathing variability (breaths/minute)” value is recorded as “significantly reduced”. Also, the “number of total gadolinium-enhancing lesions on monthly brain MRI” value in [2] is on record as “significantly lower number”. Besides, the “clasping vs vehicle-treated mutant mice” value in [3] is on record as “clasped less”. The “affinity for muscarinic acetylcholine receptors” value in [4] is on record as “low micromolar range”. Besides, in experiment [5] (Lahmy et al. 2013), the “Aβ25-35-induced P-Akt decrease and P-GSK-3β increase” value is “blocked”. In [5] (in the dose-range tested), the “hyperphosphorylation of Tau on physiological (AT-8) and pathological (AT-100) epitopes” value is recorded as “attenuated”. Also, the “oxidative stress, caspases induction, cellular loss and learning and memory deficits” value in experiment [5] (mice one week after the i.v. injection of oligomeric Aβ25-35 (Villard et al. 2011)) is reported as “attenuating”. For the same molecule, in [5] (mouse, in vivo), the “Aβ25-35-induced endogenous Aβ1-42 seeding” value is “decreasing”. For the same molecule, in experiment [6], the instances of choking result was “reduced” and the weight gain was 10%. Also, in experiment [7] (8 weeks of age), the “PPI, treatment differences” value was “No treatment differences”. The “startle response vs vehicle-treated mutant mice” value in [7] (8 weeks of age, 30 mg/kg p.o. daily) was “increased startle response”. Besides, the “startle response vs vehicle-treated mutant mice, outliers removed” value in experiment [7] (12 weeks of age, 30 mg/kg, outliers removed, p<0.01) is “increased startle”. For the same molecule, in experiment [7] (12 weeks of age, all data, p<0.08), the “startle response, treatment effect” value was “trend of a treatment effect”. In addition, the “PPI treatment interaction, post hoc” value in experiment [7] (12 weeks of age, interaction p<0.05) is on record as “did not reveal any significant post hoc differences”. In addition, the “number of daily seizures” value in experiment [8] is listed as ≤ 3. For the same molecule, the “total number of gadolinium-enhanced lesions on MRI” value in experiment [9] is on record as “substantially reduced”.
